# Molecular target: Dopamine beta-hydroxylase (Homo sapiens, UniProt P09172)
# Test: Inhibition of dopamine beta hydroxylase
# Dopamine beta-hydroxylase, sequence (P09172 whole entry): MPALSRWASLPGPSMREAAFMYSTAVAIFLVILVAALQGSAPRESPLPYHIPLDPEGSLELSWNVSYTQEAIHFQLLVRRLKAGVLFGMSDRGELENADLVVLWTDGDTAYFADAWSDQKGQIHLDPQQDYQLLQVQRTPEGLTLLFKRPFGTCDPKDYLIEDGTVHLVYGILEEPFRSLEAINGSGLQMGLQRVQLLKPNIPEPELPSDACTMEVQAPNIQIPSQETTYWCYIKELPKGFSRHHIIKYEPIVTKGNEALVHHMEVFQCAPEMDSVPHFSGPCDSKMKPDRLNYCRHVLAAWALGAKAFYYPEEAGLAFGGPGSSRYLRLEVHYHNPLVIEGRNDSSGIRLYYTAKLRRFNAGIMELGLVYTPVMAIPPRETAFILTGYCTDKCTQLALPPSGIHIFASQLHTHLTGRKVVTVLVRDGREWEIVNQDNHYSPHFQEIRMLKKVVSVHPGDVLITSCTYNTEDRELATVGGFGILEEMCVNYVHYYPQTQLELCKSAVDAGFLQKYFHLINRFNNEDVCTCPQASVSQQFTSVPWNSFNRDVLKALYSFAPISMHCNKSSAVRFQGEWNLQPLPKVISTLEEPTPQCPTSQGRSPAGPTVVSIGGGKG
row,Structure (SMILES),IC50
1,Oc1ccccc1Cn1cc[nH]c1=S,575 µM
2,S=c1[nH]ccn1Cc1ccc(Cl)cc1Cl,17 µM
3,Fc1cc(F)cc(Cn2cc[nH]c2=S)c1,1.2 µM
4,Oc1ccc(Cn2cc[nH]c2=S)cc1C(F)(F)F,120 µM
5,S=c1[nH]ccn1Cc1cccc(Cl)c1Cl,52.5 µM
6,Cc1cccc(C)c1Cn1cc[nH]c1=S,1000 µM
7,S=c1[nH]ccn1Cc1c(Cl)cccc1Cl,708 µM
8,S=c1[nH]ccn1Cc1cc(Cl)cc(Cl)c1,2.4 µM
9,S=c1[nH]ccn1Cc1c(Cl)cc(Cl)cc1Cl,102 µM
10,Oc1cc(Cl)c(Cn2cc[nH]c2=S)c(Cl)c1,75.9 µM
11,S=c1[nH]ccn1Cc1cc(Cl)ccc1Cl,97.7 µM
12,COc1c(Cl)cc(Cn2cc[nH]c2=S)cc1Cl,46.8 µM
13,Oc1c(F)cc(Cn2cc[nH]c2=S)cc1F,0.0741 µM
14,COc1c(F)cc(Cn2cc[nH]c2=S)cc1F,36.3 µM
15,Cc1ccccc1Cn1cc[nH]c1=S,339 µM
16,S=c1[nH]ccn1Cc1ccccc1,33.1 µM
17,Oc1c(Cl)cc(Cn2cc[nH]c2=S)cc1Cl,0.676 µM
18,S=c1[nH]ccn1Cc1ccccc1Cl,355 µM
19,Oc1c(F)c(F)c(Cn2cc[nH]c2=S)c(F)c1F,61.7 µM
20,COc1cc(Cl)c(Cn2cc[nH]c2=S)c(Cl)c1,155 µM
21,FC(F)(F)c1ccc(Cn2cc[nH]c2=S)cc1,200 µM
22,O=[N+]([O-])c1ccc(Cn2cc[nH]c2=S)cc1,52.5 µM

# Second part, the compound after the results:
row,IC50,Structure (SMILES)
1,28.2 µM,S=c1[nH]ccn1Cc1ccc(Cl)c(Cl)c1
2,355 µM,COc1ccc(Cn2cc[nH]c2=S)cc1[N+](=O)[O-]
3,158 µM,COc1cccc(Cn2cc[nH]c2=S)c1
4,148 µM,Cc1ccc(Cn2cc[nH]c2=S)cc1
5,30.9 µM,O=[N+]([O-])c1cc(Cn2cc[nH]c2=S)ccc1O
6,12 µM,Oc1ccc(Cn2cc[nH]c2=S)cc1Br
7,148 µM,Oc1cccc(Cn2cc[nH]c2=S)c1
8,204 µM,COc1ccc(Cn2cc[nH]c2=S)cc1
9,2.19 µM,Oc1ccc(Cn2cc[nH]c2=S)cc1O
10,74.1 µM,COc1ccc(Cn2cc[nH]c2=S)cc1F
11,174 µM,COc1ccc(Cn2cc[nH]c2=S)cc1C(F)(F)F
12,69.2 µM,COc1ccc(Cn2cc[nH]c2=S)cc1C
13,339 µM,COc1ccc(Cn2cc[nH]c2=S)cc1OC
14,83.2 µM,COc1ccc(Cn2cc[nH]c2=S)cc1Br
15,2.57 µM,Oc1ccc(Cn2cc[nH]c2=S)cc1
16,49 µM,Cc1cc(Cn2cc[nH]c2=S)ccc1O
17,1.51 µM,Oc1ccc(Cn2cc[nH]c2=S)cc1F
18,115 µM,S=c1[nH]ccn1Cc1ccc(Br)cc1
19,95.5 µM,S=c1[nH]ccn1Cc1ccc(Cl)cc1
20,74.1 µM,COc1ccccc1Cn1cc[nH]c1=S
21,46.8 µM,Fc1ccc(Cn2cc[nH]c2=S)cc1
22,12 µM,S=c1[nH]ccn1Cc1cccc(Cl)c1
23,501 µM,COc1cccc(OC)c1Cn1cc[nH]c1=S
24,5.62 µM,Fc1cccc(Cn2cc[nH]c2=S)c1

# Source: ChEMBL document CHEMBL1128392, “Receptor surface models. 2. Application to quantitative structure-activity relationships studies” (J Med Chem, 1995)
